Assay results from patent publication US20250236611A1, “PYRAZOLE COMPOUNDS AND USES THEREOF” (ALCON INC., priority 2021, published 2025).

Experiments:
Format in all cases: biochemical
Conditions in all cases: 10 nM JAK enzyme, 800 nM Abl peptide, room temperature 75 min
[1] = target: JAK2 (Homo sapiens, UniProt O60674); test: JAK assay (KINASE-GLO luminescent kinase assay), JAK2
Description: (§1) All compounds were initially prepared as 10 mM stocks in anhydrous dimethylsulfoxide (DMSO). A 20 μL aliquot of the 10 mM solutions was transferred to individual wells in column 1 of a 96-well polypropylene microtiter plate (Corning #3363) and diluted with DMSO to give a final compound concentration of 4 mM. Test compounds were then serially diluted 1:5 in DMSO for an 11-point concentration response and further diluted in the assay buffer bringing all compound concentrations to a final range of 100 μM to 10 pM in 2.5% DMSO. The assay was performed in white 96-well, flat-bottom, half-area, non-binding assay plate (Corning #3642) in assay buffer consisting of 20 mM HEPES (pH 7.5), 10 mM MgCl2*6H2O, 100 μM sodium orthovanadate, 0.05% CHAPS and 0.1% bovine serum albumin. A 10 μL aliquot of compound from each well of the intermediate dilution plate and 20 μL of a 2×JAK substrate/enzyme solution containing acceptor substrate (800 nM Abl peptide), JAK enzyme (10 nM JAK1, JAK2, JAK3, or TYK2), and 1,4-Dithiothreitol (DTT, 2 μM) were added to all wells. The reaction was initiated by the addition of 10 μL of 4× stock solution ATP (2 μM). Reactions were thoroughly mixed manually, covered and allowed to incubate at room temperature for 75 min. Protein kinase activity was quantitated using Promega's KINASE-GLO™ luminescent Kinase Assay Kit according to the manufacturer's directions. ATP concentrations remaining in Test wells following the termination of the enzymatic reaction were compared against control wells containing equivalent amounts of DMSO containing no inhibitor (CTRL). […] Percent of Control (POC) values were determined for each concentration of compound tested according to the equation:
(§2) [formula] • IC50 values were calculated using the following 4-parameter logistic curve-fitting algorithm:
(§3) [formula] • IC50 values were converted to Ki values using the Cheng-Prusoff Equation: […]

[2] = target: JAK1 (Homo sapiens, UniProt P23458); test: JAK assay (KINASE-GLO luminescent kinase assay), JAK1
Description: as §1, §2, §3

[3] = target: TYK2 (Homo sapiens, UniProt P29597); test: JAK assay (KINASE-GLO luminescent kinase assay), TYK2
Description: as §1, with “A 20 μL aliquot of the 10 mM solutions was transferred to individual wells in column 1 of a 96-well polypropylene microtiter plate (Corning #3363) and diluted with DMSO to give a final compound concentration of 4 mM.” left out
as §2, §3

[4] = target: T1, JAK3 (Homo sapiens, UniProt P52333); test: JAK assay (KINASE-GLO luminescent kinase assay), JAK3
T1 sequence (P52333 1-1124): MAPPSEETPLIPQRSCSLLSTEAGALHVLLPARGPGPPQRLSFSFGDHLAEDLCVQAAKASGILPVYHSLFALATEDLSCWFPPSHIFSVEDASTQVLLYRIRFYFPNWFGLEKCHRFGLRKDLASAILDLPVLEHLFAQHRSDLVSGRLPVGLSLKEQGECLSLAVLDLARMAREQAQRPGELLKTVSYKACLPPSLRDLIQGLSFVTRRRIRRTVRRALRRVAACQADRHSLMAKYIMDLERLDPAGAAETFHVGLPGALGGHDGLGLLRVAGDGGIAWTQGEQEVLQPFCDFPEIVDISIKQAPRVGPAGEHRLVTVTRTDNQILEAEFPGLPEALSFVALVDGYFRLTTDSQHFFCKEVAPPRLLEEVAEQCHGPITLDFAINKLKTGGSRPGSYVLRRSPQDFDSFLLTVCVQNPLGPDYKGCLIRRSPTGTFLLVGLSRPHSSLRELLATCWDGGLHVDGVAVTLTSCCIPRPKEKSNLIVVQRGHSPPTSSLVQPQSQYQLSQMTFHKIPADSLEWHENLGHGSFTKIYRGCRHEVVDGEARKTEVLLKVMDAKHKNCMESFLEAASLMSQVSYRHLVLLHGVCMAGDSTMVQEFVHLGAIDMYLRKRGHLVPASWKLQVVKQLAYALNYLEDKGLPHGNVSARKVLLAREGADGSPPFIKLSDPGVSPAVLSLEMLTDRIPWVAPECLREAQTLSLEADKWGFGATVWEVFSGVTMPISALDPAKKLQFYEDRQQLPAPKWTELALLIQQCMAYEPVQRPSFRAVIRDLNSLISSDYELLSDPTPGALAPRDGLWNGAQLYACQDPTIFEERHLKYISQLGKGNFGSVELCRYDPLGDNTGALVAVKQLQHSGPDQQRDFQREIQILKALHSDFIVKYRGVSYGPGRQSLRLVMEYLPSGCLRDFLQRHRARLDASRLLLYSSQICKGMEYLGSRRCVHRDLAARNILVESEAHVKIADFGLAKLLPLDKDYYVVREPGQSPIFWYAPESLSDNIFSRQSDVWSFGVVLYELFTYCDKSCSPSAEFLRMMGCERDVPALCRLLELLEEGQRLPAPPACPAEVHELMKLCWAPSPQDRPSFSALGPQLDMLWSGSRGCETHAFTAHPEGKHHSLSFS
Description: as §1, §2, §3

Sequence of TYK2 (P29597 whole entry): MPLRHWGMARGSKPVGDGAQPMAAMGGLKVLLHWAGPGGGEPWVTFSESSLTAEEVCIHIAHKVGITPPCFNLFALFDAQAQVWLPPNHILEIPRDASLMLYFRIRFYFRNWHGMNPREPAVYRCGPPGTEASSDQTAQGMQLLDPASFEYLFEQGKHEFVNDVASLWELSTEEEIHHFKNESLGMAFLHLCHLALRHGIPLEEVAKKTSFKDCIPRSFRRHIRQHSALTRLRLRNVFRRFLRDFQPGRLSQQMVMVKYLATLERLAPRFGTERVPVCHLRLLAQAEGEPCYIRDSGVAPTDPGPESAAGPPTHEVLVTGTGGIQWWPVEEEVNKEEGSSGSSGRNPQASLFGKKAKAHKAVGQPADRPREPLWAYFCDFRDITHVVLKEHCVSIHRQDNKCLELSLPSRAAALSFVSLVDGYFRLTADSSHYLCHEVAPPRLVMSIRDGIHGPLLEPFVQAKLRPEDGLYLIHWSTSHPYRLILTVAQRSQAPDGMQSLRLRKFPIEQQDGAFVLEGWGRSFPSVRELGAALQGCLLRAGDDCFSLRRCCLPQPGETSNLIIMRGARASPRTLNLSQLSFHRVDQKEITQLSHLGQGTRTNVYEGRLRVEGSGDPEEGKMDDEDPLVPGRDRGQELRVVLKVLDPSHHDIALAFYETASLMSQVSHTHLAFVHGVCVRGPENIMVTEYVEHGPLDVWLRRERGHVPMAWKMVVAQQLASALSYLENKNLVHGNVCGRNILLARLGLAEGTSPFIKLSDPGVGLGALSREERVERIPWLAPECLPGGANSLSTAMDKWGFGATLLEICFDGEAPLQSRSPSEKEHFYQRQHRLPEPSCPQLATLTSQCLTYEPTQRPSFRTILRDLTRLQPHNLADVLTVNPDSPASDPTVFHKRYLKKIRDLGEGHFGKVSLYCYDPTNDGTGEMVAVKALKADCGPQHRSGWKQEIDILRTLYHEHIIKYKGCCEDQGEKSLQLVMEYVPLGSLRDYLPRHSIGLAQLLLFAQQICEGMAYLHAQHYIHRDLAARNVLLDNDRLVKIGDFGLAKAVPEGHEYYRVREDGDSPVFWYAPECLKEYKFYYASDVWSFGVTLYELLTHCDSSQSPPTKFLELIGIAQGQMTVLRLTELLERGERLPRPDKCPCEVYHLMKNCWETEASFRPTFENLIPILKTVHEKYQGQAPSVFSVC
Sequence of JAK2 (O60674 whole entry): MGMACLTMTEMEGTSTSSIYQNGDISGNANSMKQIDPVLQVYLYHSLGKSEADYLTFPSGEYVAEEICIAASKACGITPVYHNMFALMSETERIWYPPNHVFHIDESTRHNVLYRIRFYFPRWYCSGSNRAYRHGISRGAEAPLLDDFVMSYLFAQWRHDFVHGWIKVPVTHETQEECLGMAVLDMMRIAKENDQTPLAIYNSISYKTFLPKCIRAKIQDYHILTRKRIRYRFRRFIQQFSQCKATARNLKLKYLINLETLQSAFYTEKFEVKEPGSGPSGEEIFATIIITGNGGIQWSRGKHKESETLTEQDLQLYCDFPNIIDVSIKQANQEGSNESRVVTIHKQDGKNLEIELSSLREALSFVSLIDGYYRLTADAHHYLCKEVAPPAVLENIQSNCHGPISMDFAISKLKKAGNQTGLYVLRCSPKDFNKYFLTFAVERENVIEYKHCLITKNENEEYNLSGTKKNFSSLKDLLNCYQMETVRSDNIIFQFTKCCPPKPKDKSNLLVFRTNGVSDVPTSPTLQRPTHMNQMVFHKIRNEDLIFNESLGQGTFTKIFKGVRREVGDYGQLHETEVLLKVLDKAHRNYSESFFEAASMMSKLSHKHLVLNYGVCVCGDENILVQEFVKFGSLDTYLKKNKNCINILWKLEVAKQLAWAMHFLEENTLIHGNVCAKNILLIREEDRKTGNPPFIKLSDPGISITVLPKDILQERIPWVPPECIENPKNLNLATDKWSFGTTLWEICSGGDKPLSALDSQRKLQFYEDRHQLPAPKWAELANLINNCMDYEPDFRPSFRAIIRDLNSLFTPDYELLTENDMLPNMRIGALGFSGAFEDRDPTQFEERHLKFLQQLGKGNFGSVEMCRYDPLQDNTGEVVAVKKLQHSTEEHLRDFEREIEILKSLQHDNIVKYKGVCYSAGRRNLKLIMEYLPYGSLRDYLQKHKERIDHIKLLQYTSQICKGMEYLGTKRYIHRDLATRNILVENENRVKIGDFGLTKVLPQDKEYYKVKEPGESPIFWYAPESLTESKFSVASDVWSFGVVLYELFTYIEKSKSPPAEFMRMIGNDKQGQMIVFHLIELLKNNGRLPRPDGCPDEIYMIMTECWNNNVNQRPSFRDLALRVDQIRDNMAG
Sequence of JAK1 (P23458 whole entry): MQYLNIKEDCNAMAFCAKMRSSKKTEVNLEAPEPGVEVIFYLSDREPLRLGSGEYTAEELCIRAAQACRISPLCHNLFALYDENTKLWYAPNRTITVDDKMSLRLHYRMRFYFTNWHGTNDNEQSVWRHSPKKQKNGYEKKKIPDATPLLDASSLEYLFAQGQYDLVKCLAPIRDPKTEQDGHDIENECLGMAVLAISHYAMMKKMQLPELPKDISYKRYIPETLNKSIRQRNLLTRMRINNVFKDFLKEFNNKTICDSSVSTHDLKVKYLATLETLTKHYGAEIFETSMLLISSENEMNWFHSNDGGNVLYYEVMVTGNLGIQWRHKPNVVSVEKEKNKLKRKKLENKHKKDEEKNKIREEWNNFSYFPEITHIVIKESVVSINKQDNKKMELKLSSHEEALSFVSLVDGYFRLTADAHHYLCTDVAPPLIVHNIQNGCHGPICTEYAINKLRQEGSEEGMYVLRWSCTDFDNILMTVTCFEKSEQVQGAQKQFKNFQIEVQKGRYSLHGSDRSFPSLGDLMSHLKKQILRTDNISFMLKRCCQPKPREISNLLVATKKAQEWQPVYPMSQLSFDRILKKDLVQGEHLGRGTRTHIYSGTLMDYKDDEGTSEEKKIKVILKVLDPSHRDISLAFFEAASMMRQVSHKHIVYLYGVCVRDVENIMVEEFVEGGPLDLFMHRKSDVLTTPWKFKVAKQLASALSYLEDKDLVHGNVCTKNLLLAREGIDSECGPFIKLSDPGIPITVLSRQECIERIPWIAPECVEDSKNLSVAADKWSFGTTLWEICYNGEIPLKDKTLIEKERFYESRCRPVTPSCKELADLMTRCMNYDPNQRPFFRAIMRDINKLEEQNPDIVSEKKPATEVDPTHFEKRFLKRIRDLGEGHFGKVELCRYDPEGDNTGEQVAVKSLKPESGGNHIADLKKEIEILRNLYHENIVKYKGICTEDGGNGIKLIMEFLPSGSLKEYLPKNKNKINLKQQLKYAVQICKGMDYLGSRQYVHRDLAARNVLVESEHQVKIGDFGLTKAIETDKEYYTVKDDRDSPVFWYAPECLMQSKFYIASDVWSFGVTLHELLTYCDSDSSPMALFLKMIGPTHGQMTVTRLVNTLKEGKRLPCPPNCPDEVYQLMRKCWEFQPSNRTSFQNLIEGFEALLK

Structure (SMILES) | IC50 [1] [nM] | IC50 [2] [nM] | IC50 [3] [nM] | IC50 [4] [nM]
Cc1cnc(Nc2ccc(C3CN(C(=O)OC(C)(C)C)C3)cc2)nc1-c1cnn(CCC#N)c1 [CC1═C(N═C(NC2═CC═C(C═C2)C3CN] | < 10 | < 100 | < 10 | < 100
Cc1cnc(Nc2ccc(N3CC4(COC4)C3)cc2)nc1-c1cnn(CC2(CF)CC2)c1 [CC1═C(N═C(NC2═CC═C(C═C2)N3CC4] | < 10 | < 100 | < 100 | < 10
Cc1cnc(Nc2ccc(N3CCN(C(=O)OC(C)(C)C)CC3)cc2)nc1-c1cnn(CC2(CF)CC2)c1 [CC1═C(N═C(NC2═CC═C(C═C2)N3CCN] | < 10 | < 1000 | < 100 | < 100
Cc1cnc(Nc2ccc(S(C)(=O)=O)cc2)nc1-c1cnn(CC2(Cl)CC2)c1 [CC1═C(N═C(NC2═CC═C(C═C2)[S]] | < 10 | < 100 | < 10 | < 10
Cc1cnc(Nc2cccc(C(N)=O)c2)nc1-c1cnn(CC2(CF)CC2)c1 [CC1═C(N═C(NC2═CC═CC(═C2)C] | < 10 |  |  | < 100
Cc1cnc(Nc2ccccn2)nc1-c1cnn(CC2(Cl)CC2)c1 [CC1═C(N═C(NC2═CC═CC═N2)N═C1)C3═C[N]] | < 1000 | < 100000 | < 100000 | < 100000
Cc1cnc(Nc2ccns2)nc1-c1cnn(CC2(CF)CC2)c1 [CC1═C(N═C(NC2═CC═NS2)N═C1)C3═C[N]] | < 10 |  |  | 
Cc1cnc(Nc2cnc(N3CCOCC3)nc2)nc1-c1cnn(CC2(CF)CC2)c1 [CC1═C(N═C(NC2═CN═C] | < 10 | < 1000 | < 1000 | < 100
Cc1cnc(NC(=O)Nc2ccc(Cl)cc2)nc1-c1cnn(CC2(CF)CC2)c1 [CC1═C(N═C(NC(═O)NC2═CC═C] | > 50000 | > 50000 | > 50000 | > 50000
Cc1cnc(NC(=O)Oc2ccc(Cl)cc2)nc1-c1cnn(CC2(CF)CC2)c1 [CC1═C(N═C(NC(═O)OC2═CC═C] | < 1000 | < 100000 | < 100000 | < 100000
Cc1cnc(NCCN2CCOCC2)nc1-c1cnn(CCC#N)c1 [CC1═C(N═C(NCCN2CCOCC2)N═C1)C3═C[N]] | < 100000 | < 100000 |  | > 50000
Cc1ccc(S(=O)(=O)Nc2ncc(Cl)c(-c3cnn(CCC#N)c3)n2)cc1 [CC1═CC═C(C═C1)[S](═O)(═O)NC2═NC] | < 100000 |  | < 100000 | 
Cc1cnc(Nc2cccc3c2CN(C)C3)nc1-c1cnn(CC2(Cl)CC2)c1 [CN1CC2═CC═CC(═C2C1)NC3═NC(═C] | < 1000 | < 100000 |  | < 100000
N#CCCn1cc(-c2nc(N(C(=O)c3ccccc3)C(=O)c3ccccc3)ncc2Cl)cn1 [ClC1═C(N═C(N═C1)N(C(═O)C2═CC═CC═C2)C] | < 100000 |  |  | 
